In patent US20160368895A1, “PULMONARY HYPERTENSION TREATING AGENT” (THE UNIVERSITY OF TOKYO, priority 2013, published 2016):

Legend:
[1] = target: T1, human PGI2 receptors (hIP) (Homo sapiens, UniProt P43119); experiment: Method B: positive allosteric modulator activity, cAMP in CHO/hIP cells with 1 nM epoprostenol; format: cell-based; conditions: cAMP relative to 1 nM epoprostenol alone
T1 construct: expressed in transfected cells; host or cells: CHO-K1
Method: The positive allosteric modulator activity of a test compound was measured as a change in the amount of intracellular cyclic AMP (cAMP) in the presence of 1 nM of the IP agonist epoprostenol (manufactured by GlaxoSmithKline), using CHO-K1 cells (CHO/hIP cells) in which human PGI2 receptors (hIP) are stably expressed.
An amount of 5 μL of a mixture (diluted in F-12 culture medium (manufactured by GIBCO) including 0.1% BSA) of epoprostenol dissolved in DMSO and a test compound dissolved in DMSO was dispensed in advance into a 384-well black microplate, and 5 μL of CHO/hIP cells suspended at a concentration of 1.4×10^6 cells/mL in F-12 culture medium including 0.1% BSA were added to the microplate. After 40 minutes of incubation at room temperature, the amount of cAMP was measured using a cAMP assay kit (cAMP HiRange, manufactured by Cisbio Bioassays). Specifically, 5 μL of a cAMP-d2 solution (including a cell lysate) from the kit were added and the reaction was stopped, then 5 μL of a fluorescence-labeled cAMP antibody solution from the kit were added and incubation was performed for 1 hour at room temperature, after which fluorescence was measured using a PHERAstar plate reader (manufactured by BMG) in HTRF (registered trademark) mode. The amount of cAMP in each well was calculated from a cAMP calibration curve obtained using a standard sample, and the activity of each test compound is noted below as a ratio T/C (%) based on the amount of cAMP for 1 nM of epoprostenol alone.

[2] = target: T1, human PGI2 receptors (hIP); experiment: Method C: effect on epoprostenol-cAMP production curve in CHO/hIP cells (left shift value); format: cell-based; conditions: Table 4, concentration of test compound that halves the EC50 of epoprostenol
Method: The effect of a test compound on the cAMP production curve with respect to the IP agonist epoprostenol (manufactured by GlaxoSmithKline) was investigated using CHO-K1 cells (CHO/hIP cells) in which human PGI2 receptors (hIP) are stably expressed.
(§1) An amount of 5 μL of a mixture (diluted in F-12 culture medium (manufactured by GIBCO) including 0.1% BSA) of epoprostenol dissolved in DMSO and a test compound dissolved in DMSO was dispensed in advance into a 384-well black microplate, and 5 μL of CHO/hIP cells suspended at a concentration of 1.4×10^6 cells/mL in F-12 culture medium including 0.1% BSA were added to the microplate. After 40 minutes of incubation at room temperature, the amount of cAMP was measured using a cAMP assay kit (cAMP HiRange, manufactured by Cisbio Bioassays). Specifically, 5 μL of a cAMP-d2 solution (including a cell lysate) from the kit were added and the reaction was stopped, then 5 μL of a fluorescence-labeled cAMP antibody solution from the kit were added and incubation was performed for 1 hour at room temperature, after which fluorescence was measured using a PHERAstar plate reader (manufactured by BMG) in HTRF (registered trademark) mode. The amount of cAMP in each well was calculated from a cAMP calibration curve obtained using a standard sample, and an epoprostenol-cAMP production curve for the presence of various concentrations of the test compound was created.

[3] = target: T1, human PGI2 receptors (hIP); experiment: Method D: effect on cAMP production in human aortic smooth muscle cells (left shift value); format: cell-based; conditions: concentration of test compound that halves the EC50 of epoprostenol
Method: The effect of a test compound on the cAMP production curve with respect to the IP agonist epoprostenol (manufactured by GlaxoSmithKline) was investigated using human aortic smooth muscle cells known to express human PGI2 receptors (hIP).
as §1, with “created. […]” for “created.”

[4] = tested on: thoracic aorta of the marmot; experiment: Magnus test using a blood vessel removed from a marmot; conditions: 20 μM of test compound; FIG. 2
Method: An incision was made in the thoracic region of a marmot (slc/Harley, male, 11-12 weeks of age) under anesthesia, and the thoracic aorta of the marmot was removed. The vascular endothelium was removed using a thread, after which the blood vessel was cut into a round slice having a width of approximately 2 mm and fixed to a fixing rod using thread or a stainless steel hook, and placed in a 10 mL Magnus tube maintained at a temperature of 37° C. and saturated with a 95% O2/5% CO2 gas mixture, and a tension of 1 g was placed on the blood vessel. When the tension on the specimen became stable, phenylephrine (phenylephrine hydrochloride, PHE, manufactured by Sigma-Aldrich Japan, final concentration: 3×10^−6 mol/L) was added thereto to cause the specimen to contract, the test compound or a solvent was added when the contraction became stable, the IP agonist beraprost (beraprost sodium, manufactured by Cayman Chemical) was cumulatively added after 15 minutes to give a final concentration of 1 nM to 1000 nM, and the change in relaxation response was recorded.
The contraction inhibition rate for each set of data was calculated using a contraction rate of 100% as the control (DMSO addition).

T1 sequence (P43119 whole entry): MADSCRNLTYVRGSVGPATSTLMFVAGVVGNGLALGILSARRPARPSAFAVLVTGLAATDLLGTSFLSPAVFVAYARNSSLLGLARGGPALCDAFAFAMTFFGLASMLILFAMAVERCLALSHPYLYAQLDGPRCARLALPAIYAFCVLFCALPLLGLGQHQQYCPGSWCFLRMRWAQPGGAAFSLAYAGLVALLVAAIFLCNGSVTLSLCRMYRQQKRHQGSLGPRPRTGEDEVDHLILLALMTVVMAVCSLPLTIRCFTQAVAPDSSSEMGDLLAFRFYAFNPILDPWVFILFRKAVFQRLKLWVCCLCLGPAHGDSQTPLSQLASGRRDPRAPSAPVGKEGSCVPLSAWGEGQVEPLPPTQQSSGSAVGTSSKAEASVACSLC

Compound: Cc1ccc2c(c1)CN(C(c1ccccc1C)c1nnnn1C(C)(C)C)CC2 (centres unmarked) [Example 24]
- T/C ([1]; test concentration 10 uM): 116.3%
- left shift value [2]: 61.25 µM

Compound: Cc1ccccc1C(c1nnnn1C(C)(C)C)N1CCc2ccccc2C1 (centres unmarked) [Example 25]
- T/C ([1]; test concentration 10 uM): 177.2%
- left shift value [2]: 5.5 µM

Compound: CC(C)(C)n1nnnc1C(c1ccccc1N)N1CCc2ccccc2C1 (centres unmarked) [Example 26]
- T/C ([1]; test concentration 10 uM): 105.5%
- left shift value [2]: 163.7 µM

Compound: Cc1ccc2c(c1)CN(C(c1ccccc1C)c1nnnn1C(C)(C)C)CC2 (centres unmarked) [Example 27]
- T/C ([1]; test concentration 5 uM): 99.8%
- left shift value [2]: 15.2 µM

Compound: Cc1ccccc1C(c1nnnn1C(C)(C)C)N1CCc2c(Cl)cccc2C1 (centres unmarked) [Example 29]
- T/C ([1]; test concentration 10 uM): 135.5%
- left shift value [2]: 15.2 µM

Compound: CC(C)(C)n1nnnc1C(c1ccccc1[N+](=O)[O-])N1CCc2ccc(F)cc2C1 (centres unmarked) [Example 30]
- T/C ([1]; test concentration 10 uM): 100.4%
- left shift value [2]: 269.8 µM

Compound: CC(C)(C)n1nnnc1C(C1=CC=CC1)N1CCc2ccccc2C1 (centres unmarked) [Example 31]
- T/C ([1]; test concentration 10 uM): 186.2%
- left shift value [2]: 3.5 µM

Compound: CC(C)(C)n1nnnc1C(C1=CCC=C1)N1CCc2ccccc2C1 (centres unmarked) [Example 32]
- T/C ([1]; test concentration 10 uM): 153.8%
- left shift value [2]: 8.4 µM

Compound: CC(C)(C)n1nnnc1C(c1ccco1)N1CCc2ccccc2C1 (centres unmarked) [Example 33]
- T/C ([1]; test concentration 10 uM): 119.7%
- left shift value [2]: 38.4 µM

Compound: CC(C)(C)n1nnnc1C(c1ccoc1)N1CCc2ccccc2C1 (centres unmarked) [Example 34]
- T/C ([1]; test concentration 10 uM): 145.9%
- left shift value [2]: 11.7 µM

Compound: CC(C)(C)n1nnnc1C(c1ccc[nH]1)N1CCc2ccccc2C1 (centres unmarked) [Example 35]
- T/C ([1]; test concentration 10 uM): 121.8%
- left shift value [2]: 28.5 µM

Compound: CC(C)(C)n1nnnc1C(c1c[nH]c2ccccc12)N1CCc2ccccc2C1 (centres unmarked) [Example 36]
- T/C ([1]; test concentration 10 uM): 172.6%
- left shift value [2]: 5.7 µM

Compound: COc1cccc(OC)c1C(c1nnnn1C(C)(C)C)N1CCc2ccccc2C1 (centres unmarked) [Example 37]
- T/C ([1]; test concentration 10 uM): 104.9%
- left shift value [2]: 71.1 µM

Compound: COc1cc(F)ccc1C(c1nnnn1C(C)(C)C)N1CCc2ccccc2C1 (centres unmarked) [Example 38]
- T/C ([1]; test concentration 10 uM): 147.0%
- left shift value [2]: 15.1 µM

Compound: CC(C)(C)n1nnnc1C(c1ccccc1)N1CCc2ccccc2C1 (centres unmarked) [Example 39]
- T/C ([1]; test concentration 10 uM): 144.4%
- left shift value [2]: 12.3 µM

Compound: Cc1ccccc1C(c1nnnn1C1(C)CCCCC1)N1CCc2ccccc2C1 (centres unmarked) [Example 42]
- T/C ([1]; test concentration 10 uM): 142.5%
- left shift value [2]: 14.5 µM

Compound: COc1cc[nH]c1C(c1nnnn1C(C)(C)C)N1CCc2ccccc2C1 (centres unmarked) [Example 43]
- T/C ([1]; test concentration 10 uM): 267.8%
- left shift value [2]: 1.2 µM

Compound: COc1csc(C(c2nnnn2C(C)(C)C)N2CCc3ccccc3C2)c1 (centres unmarked) [Example 44]
- T/C ([1]; test concentration 5 uM): 143.8%
- left shift value [2]: 7.7 µM

Compound: COc1ccccc1C(c1nnnn1C1(C)CCCCCC1)N1CCc2ccccc2C1 (centres unmarked) [Example 45]
- T/C ([1]; test concentration 5 uM): 144.3%
- left shift value [2]: 5.7 µM

Compound: Cc1ccccc1C(c1nnnn1C1(C)CCCCCC1)N1CCc2ccccc2C1 (centres unmarked) [Example 46]
- T/C ([1]; test concentration 10 uM): 106.2%
- left shift value [2]: 267.0 µM

Compound: CSc1ccccc1C(c1nnnn1C1(C)CCCCCC1)N1CCc2ccccc2C1 (centres unmarked) [Example 47]
- T/C ([1]; test concentration 10 uM): 121.9%
- left shift value [2]: 25.4 µM

Compound: COc1ccccc1C(c1nnnn1C(C)(C)C)N1CCc2ccccc2C1 (centres unmarked) [Example 51]
- left shift value [3]: 3.9 µM
- left shift value [2]: 4.3 µM
- enhancement of vasoconstriction inhibition (vasorelaxation) with respect to beraprost [4]: an enhancement of vasoconstriction inhibition (vasorelaxation) with respect to the IP agonist beraprost was recognized

Compound: CC(C)(C)n1nnnc1C(c1ccccc1F)N1CCc2ccccc2C1 (centres unmarked) [Example 54]
- left shift value [3]: 2.9 µM
- left shift value [2]: 4.7 µM

Compound: CCOc1ccccc1C(C1=NNCN1C(C)(C)C)N1CCc2ccc(O)cc2C1 (centres unmarked) [Example 56]
- T/C ([1]; test concentration 10 uM): 101.0%
- left shift value [2]: 117.3 µM

Compound: CC(C)(C)n1nnnc1C(c1ccccc1O)N1CCc2ccccc2C1 (centres unmarked) [Example 57, 2-((1-tert-butyl-1H-tetrazol-5-yl)(3,4-dihydroisoquinolin-2(1H)-yl)methyl)phenol]
- T/C ([1]; test concentration 10 uM): 256.5%
- left shift value [2]: 1.4 µM

Compound: CC(C)(C)n1nnnc1C(c1ccccc1N)N1CCc2ccccc2C1 (centres unmarked) [Example 58, 2-((1-tert-butyl-1H-tetrazol-5-yl)(3,4-dihydroisoquinolin-2(1H)-yl)methyl)aniline]
- T/C ([1]; test concentration 10 uM): 102.7%
- left shift value [2]: 78.3 µM
